According to patent publication US20230174939A1, “NOVEL ANUCLEATED CELLS AS A SOURCE FOR TREATMENT OF PLATELET RICH PLASMA DEPENDENT DISORDERS” (Stellular Bio, Inc., priority 2020, published 2023):

Experiment: Body weight of rats on treatment in MIA osteoarthritis study
Assay type: in vivo, Sprague Dawley rats
Details: oral, positive control; treatment stopped early in the study
Method: Groups of 20 male Sprague Dawley rats were given a 2 mg intra-articular injection of MIA into the right knee on day 0. On day 18, rats were treated with a single dose of plasmalyte buffer (negative control), PLCs, PLC lysate, or human PRP by intra-articular injection into the right knee.

## C[C@@H]1C[C@H]2[C@@H]3CCC4=CC(=O)C=C[C@]4(C)[C@@]3(F)[C@@H](O)C[C@]2(C)[C@@]1(O)C(=O)CO [dexamethasone]
  body weight on treatment: began to lose weight
